According to patent publication US9162993B2, “Preparation and pharmaceuticals of biphenyl benzamide-derived derivatives” (NATIONAL DEFENSE MEDICAL CENTER, priority 2012, dated 2015):

What was measured:
[1] = test system: RANKL-induced osteoclast differentiation in RAW 264.7 cells; experiment: TRAP staining, RANKL-induced osteoclast differentiation (TRAP+ multinucleated cells); assay type: cell-based, murine; conditions: Mus musculus, RAW264.7; RAW 264.7 cells, RANKL (100 ng/mL), compounds at 5 μM, TRAP-positive multinucleated cells; read-out: Inhibition of MNCs (%)
Protocol: (§1) The compounds 1 to 24 of the present invention is tested by three pharmacological activity tests as follows: (1) MTT assay to test the RAW264.7 cell (murine monocyte/macrophage cell line) viability; (2) Tartrate-resistant acid phosphatase (TRAP) staining and activity analysis to investigate the cell differentiation activity; (3) The activity test of bone resorption (Pit formation assay).
(§2) The synthesized difunisal derivatives, compounds 1 to 24, were pharmacologically tested to be identified the relationship between their structure and activity. Cell viability was measured by MTT assay in RAW 264.7 cells upon treatment with compounds at 5 μM. CC50 is the cytotoxic concentration that produces 50% (CC50) cell death. […] The multinucleated osteoclasts could be formed by RANKL-induced macrophage cell line […]. RAW 264.7 cells were cultured with the indicated in the presence of drug and RANKL (100 ng/mL). Numbers of TRAP-positive (TRAP^+) multinucleated cells (MNCs) were counted in the presence of RANKL to identify the relationship between osteoclast and bone formation. […] The compound 16 performed the best inhibitory effect in the TRAP staining. The compound 16 was a derivate from compound 4 and its structure was related to compound 4. Therefore, the compound 4 and 16 were performed by TRAP assay to evaluate the effect on osteoclast differentiation by different concentration of compounds. […] According to above result, it can be speculated that: (1) Due to different substitutes on benzene ring of difunisal, the inhibitory ability of RANKL-induced osteoclast differentiation would be different. (2) Due to the electron-withdrawing group substitutes of R1 and R4 on benzene ring, or electron-withdrawing group substitutes derivatives of R2 on benzene ring, such as compound 4. (R1═F and R4═F), compound 6 (R2═CF3), compound 9 (R2═CN) and compound 16 (R1═F and R4═F), (3) compound 4 (R1═F and R4═F) and compound 6 (R2═CF3), a cyclic derivate compound 16 (R1═F and R4═F) and compound 18 (R2═CF3), the inhibitory activity would be stronger.

[2] = MTT assay, RAW264.7 cell viability; assay type: cell-based; conditions: mouse; RAW 264.7 cells; cytotoxic concentration that produces 50% cell death
Protocol: as §1, §2

RAW 264.7 cells = experiment: MTT assay, RAW264.7 cell viability; assay type: cell-based; conditions: MTT assay, compounds at 5 μM
Protocol: as §1, §2

NO production = experiment: Measurement of NO concentrations (Griess reaction) in porcine chondrocytes; assay type: cell-based; conditions: Sus scrofa, Chondrocyte, nitrite in supernatants, read-out: anti-inflammatory IC50 (μM) on NO production
Protocol: Porcine cartilage was obtained from the hind leg joints of pigs. The synthesis of chondrocytes from cartilage was performed according to our previous report. After enzymatic digestion of articular cartilage with 2 mg/mL protease in serum-free Dulbecco's modified Eagle's medium (DMEM)/antibiotics, the specimens were then digested overnight with 2 mg/mL collagenase I and 0.9 mg/ml, hyaluronidase in DMEM containing 10% fetal bovine serum (FBS). The cells were collected, passed through a cell strainer (Becton Dickinson, Mountain View, Calif., USA), and cultured in DMEM containing 10% […] and antibiotics for 3-4 days before use.
The measurement of NO release was reflected by determination of its stable end product, nitrite, in supernatants. The Griess reaction was performed with the concentrations of nitrite measured by a spectrophotometer. In brief, an aliquot (100 μL) of culture supernatant was incubated with 50 μL of 0.1% sulfanilamide in 5% phosphoric acid and 50 μL of 0.1% N-1-naphthyl-ethylenediamine dihydrochloride. After 10 min of incubation at room temperature, the absorbance was measured at 550 nm wavelength with a plate reader (recall, Grodig, […]).

| SMILES | inhibition at 5 µM [1] [%] | CC50 [2] [µM] | Cell viability (%) (RAW 264.7 cells) | IC50 (NO production) [µM] |
| --- | --- | --- | --- | --- |
| O=C(O)c1cc(-c2ccc(F)cc2F)ccc1O [Diflunisal, reference compound] | 23.9 ± 1.88 | > 20 | 103.82 ± 1.78 | > 10 |
| O=C(Nc1ccc(Cl)cc1F)c1cc(-c2ccc(F)cc2F)ccc1O [compound 1, N-(4-chloro-2-fluorophenyl)-2′,4′-difluoro-4-hydroxybiphenyl-3-carboxamide] | 44.3 ± 7.93 | 17.9 | 77.54 ± 1.17 | 7.94 |
| O=C(Nc1ccc(F)cc1F)c1cc(-c2ccc(F)cc2F)ccc1O [compound 2, N-(2,4-difluorophenyl)-2′,4′-difluoro-4-hydroxybiphenyl-3-carboxamide] | 32.2 ± 5.58 | > 20 | 109.62 ± 3.37 | 0.95 |
| O=C(Nc1ccc(F)c(F)c1)c1cc(-c2ccc(F)cc2F)ccc1O [compound 3] | 47.4 ± 5.58 | 14.6 | 78.42 ± 3.79 | 0.79 |
| O=C(Nc1ccccc1C(F)(F)F)c1cc(-c2ccc(F)cc2F)ccc1O [compound 5] | 42.8 ± 6.51 | > 20 | 99.37 ± 3.71 | > 10 |
| O=C(Nc1cccc(C(F)(F)F)c1)c1cc(-c2ccc(F)cc2F)ccc1O [compound 6, 2′,4′-difluoro-4-hydroxy-N-(3-(trifluoromethyl)phenyl)[1,1′-biphenyl]-3-carboxamide] | 59.2 ± 2.28 | 14.3 | 96.73 ± 1.18 | 0.71 |
| O=C(Nc1ccc(C(F)(F)F)cc1)c1cc(-c2ccc(F)cc2F)ccc1O [compound 7, 2′,4′-difluoro-4-hydroxy-N-(4-(trifluoromethyl)phenyl)-[1,1′-biphenyl]-3-carboxamide] | 51.5 ± 6.25 | 10.4 | 85.22 ± 3.83 | 0.64 |
| C#Cc1cccc(NC(=O)c2cc(-c3ccc(F)cc3F)ccc2O)c1 [compound 8, N-(3-ethynylphenyl)-2′,4′-difluoro-4-hydroxy-[1,1′-biphenyl]-3-carboxamide] | 40.6 ± 2.01 | > 20 | 62.95 ± 0.85 | 2.45 |
| N#Cc1cccc(NC(=O)c2cc(-c3ccc(F)cc3F)ccc2O)c1 [compound 9, N-(3-cyanophenyl)-2′,4′-difluoro-4-hydroxy-[1,1′-biphenyl]-3-carboxamide] | 71.3 ± 3.39 | 12.3 | 72.15 ± 0.36 | > 10 |
| N#Cc1ccc(NC(=O)c2cc(-c3ccc(F)cc3F)ccc2O)cc1 [compound 10, N-(4-cyanophenyl)-2′,4′-difluoro-4-hydroxy-[1,1′-biphenyl]-3-carboxamide] | 13.9 ± 1.23 | 14.4 | 96.24 ± 2.29 | > 10 |
| COc1ccc(NC(=O)c2cc(-c3ccc(F)cc3F)ccc2O)cc1OC [compound 11, N-(3,4-dimethoxyphenyl)-2′,4′-difluoro-4-hydroxy-[1,1′-biphenyl]-3-carboxamid] | 51.9 ± 6.5 | > 20 | 98.87 ± 2.06 | 1.5 |
| COc1cccc(NC(=O)c2cc(-c3ccc(F)cc3F)ccc2O)c1 [compound 12, 2′,4′-difluoro-4-hydroxy-N-(3-methoxyphenyl)-[1,1′-biphenyl]-3-carboxamide] | 40.8 ± 2.65 | > 20 | 104.90 ± 2.62 | 2.24 |
| O=c1oc2ccc(-c3ccc(F)cc3F)cc2c(=O)n1-c1ccc(Cl)cc1F [compound 13, 3-(4-chloro-2-fluorophenyl)-6-(2,4-difluorophenyl)-2H-benzo[e][1,3]oxazine-2,4(3H)-dione] | 19.4 ± 1.4 | > 20 | 96.22 ± 0.53 | 1.08 |
| O=c1oc2ccc(-c3ccc(F)cc3F)cc2c(=O)n1-c1ccc(F)cc1F [compound 14, 3,6-bis(2,4-difluorophenyl)-2H-benzo[e][1,3]oxazine-2,4(3H)-dione] | 42.3 ± 6.62 | 12.7 | 96.49 ± 1.86 | 1.26 |
| O=c1oc2ccc(-c3ccc(F)cc3F)cc2c(=O)n1-c1ccc(F)c(F)c1 [compound 15] | 17.4 ± 7.49 | 9.96 | 72.15 ± 0.43 | 0.61 |
| O=c1oc2ccc(-c3ccc(F)cc3F)cc2c(=O)n1-c1ccccc1C(F)(F)F [compound 17, 6-(2,4-difluorophenyl)-3-(2-(trifluoromethy)phenyl)-2H-benzo[e][1,3]oxazine-2,4(3H)-dione] | 31.6 ± 4 | 15.1 | 95.53 ± 3.86 | > 10 |
| O=c1oc2ccc(-c3ccc(F)cc3F)cc2c(=O)n1-c1cccc(C(F)(F)F)c1 [compound 18, 6-(2,4-difluorophenyl)-3-(3-(trifluoromethyl)phenyl)-2H-benzo[e][1,3]oxazine-2,4(3H)-dione] | 62.9 ± 2.65 | 13 | 100.13 ± 0.94 | 0.55 |
| O=c1oc2ccc(-c3ccc(F)cc3F)cc2c(=O)n1-c1ccc(C(F)(F)F)cc1 [compound 19, 6-(2,4-difluorophenyl)-3-(4-(trifluoromethyl)phenyl)-2H-benzo[e][1,3]oxazine-2,4(3H)-dione] | 16.9 ± 4.61 | 15.5 | 103.01 ± 2.51 | 0.75 |
| C#Cc1cccc(-n2c(=O)oc3ccc(-c4ccc(F)cc4F)cc3c2=O)c1 [compound 20, 6-(2,4-difluorophenyl)-3-(3-ethynylphenyl)-2H-benzo[e][1,3]oxazine-2,4(3H)-dione] | 57.5 ± 3.25 | 11 | 88.38 ± 4.65 | 1.63 |
| N#Cc1cccc(-n2c(=O)oc3ccc(-c4ccc(F)cc4F)cc3c2=O)c1 [compound 21, 3-(6-(2,4-difluorophenyl)-2,4-dioxo-2H-benzo[e][1,3]oxazin-3(4H)-yl)benzonitrile] | 34 ± 6.98 | 14.9 | 102.79 ± 1.93 | > 10 |
| N#Cc1ccc(-n2c(=O)oc3ccc(-c4ccc(F)cc4F)cc3c2=O)cc1 [compound 22, 4-(6-(2,4-difluorophenyl)-2,4-dioxo-2H-benzo[e][1,3]oxazin-3(4H)-yl)benzonitrile] | 29.4 ± 5.48 | > 20 | 108.33 ± 1.10 | 0.55 |
| COc1ccc(-n2c(=O)oc3ccc(-c4ccc(F)cc4F)cc3c2=O)cc1OC [compound 23, 6-(2,4-difluorophenyl)-3-(3,4-dimethoxyphenyl)-2H-benzo[e][1,3]oxazine-2,4(3H)-dione] | 21.2 ± 2.49 | > 20 | 103.05 ± 4.03 | 0.47 |
| COc1cccc(-n2c(=O)oc3ccc(-c4ccc(F)cc4F)cc3c2=O)c1 [compound 24, 6-(2,4-difluorophenyl)-3-(3-methoxyphenyl)-2H-benzo[e][1,3]oxazine-2,4(3H)-dione] | 30.8 ± 5.77 | > 20 | 105.53 ± 4.7 | 1.95 |
